From article PMC6149819, “Domain IV of Annexin A5 Is Critical for Binding Calcium and Guarantees Its Maximum Binding to the Phosphatidylserine Membrane” (Molecules : A Journal of Synthetic Chemistry and Natural …, 2017)

What was measured:
wtA5 (wild-type anxA5) = target: T1, wtA5 (wild-type anxA5) (Homo sapiens, UniProt P08758); test: isothermal titration calorimetry, one-site model; assay type: binding
T1 construct: non-fusion protein released by SspDnaB intein self-cleavage, His6-CBD-intein removed; E. coli BL21(DE3); forward primer encodes AQVLRG directly after the intein (initiator Met absent)
T1 sequence (P08758 2-320): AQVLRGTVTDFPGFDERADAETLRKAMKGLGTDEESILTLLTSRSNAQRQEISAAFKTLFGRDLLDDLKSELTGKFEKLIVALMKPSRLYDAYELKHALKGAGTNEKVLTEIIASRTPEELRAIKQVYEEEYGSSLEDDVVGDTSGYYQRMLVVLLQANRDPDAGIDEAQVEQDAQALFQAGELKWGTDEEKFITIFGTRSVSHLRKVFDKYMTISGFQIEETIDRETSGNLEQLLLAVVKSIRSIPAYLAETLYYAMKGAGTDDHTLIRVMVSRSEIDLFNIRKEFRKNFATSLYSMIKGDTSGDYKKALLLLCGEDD
Source text: isothermal titration calorimetry, one-site model on wtA5 (wild-type anxA5)

[1] = target: T2, ctA5 (C-terminal truncated anxA5, lacking domain IV) (Homo sapiens, UniProt P08758, DEL255-320); test: isothermal titration calorimetry, one-site model; assay type: binding
T2 construct: domain IV (last 66 residues) deleted; reverse primer ends at AYLAET; non-fusion protein released by SspDnaB intein self-cleavage, His6-CBD-intein removed; E. coli BL21(DE3); initiator Met absent
T2 sequence (P08758 2-254): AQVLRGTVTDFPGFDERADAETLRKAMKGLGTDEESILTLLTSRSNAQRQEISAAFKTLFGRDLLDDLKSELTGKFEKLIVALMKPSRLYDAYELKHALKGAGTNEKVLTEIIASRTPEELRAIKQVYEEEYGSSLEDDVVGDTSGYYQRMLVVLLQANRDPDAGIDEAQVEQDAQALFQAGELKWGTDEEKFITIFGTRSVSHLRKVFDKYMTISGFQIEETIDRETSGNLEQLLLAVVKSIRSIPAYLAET
Source text: isothermal titration calorimetry, one-site model on ctA5 (C-terminal truncated anxA5, lacking domain IV)

Kd (wtA5 (wild-type anxA5)): 55.9 ± 6.8 µM | Kd [1]: 158 ± 15.4 µM
SMILES: CCCCCCCC/C=C\CCCCCCCC(=O)O[C@H](COC(=O)CCCCCCCCCCCCCCC)COP(=O)(O)OC[C@H](N)C(=O)O [POPS]
